According to patent US11427549B2, “Pyrimidinyloxy benzo-fused compounds as herbicides” (FMC Corporation, priority 2017, dated 2022):

What was measured:
[1] = tested on: galium (catchweed bedstraw, Galium aparine); assay: Test A postemergence, galium; assay type: in vivo; conditions: Galium, post-emergence, 240 h, 0 to 100 scale (0 no effect, 100 complete control), read-out: Plant response rating, Galium; for pest or weed control at 31 g/ha: 31 g ai/ha; for pest or weed control at 125 g/ha: 125 g ai/ha
[2] = tested on: ragweed (common ragweed, Ambrosia elatior); assay: Test A postemergence, ragweed; assay type: in vivo; conditions: Ambrosia artemisiifolia, post-emergence, 240 h, 0 to 100 scale (0 no effect, 100 complete control), read-out: Plant response rating, Ragweed; for pest or weed control at 31 g/ha: 31 g ai/ha; for pest or weed control at 125 g/ha: 125 g ai/ha
[3] = tested on: barnyardgrass (Echinochloa crus-galli); assay: Test A preemergence, barnyardgrass; assay type: in vivo; conditions: Echinochloa crus-galli, pre-emergence, 240 h, 0 to 100 scale (0 no effect, 100 complete control), read-out: Plant response rating, Barnyardgrass; for pest or weed control at 31 g/ha: 31 g ai/ha; for pest or weed control at 125 g/ha: 125 g ai/ha
[4] = tested on: ryegrass, Italian (Italian ryegrass, Lolium multiflorum); assay: Test A postemergence, ryegrass, Italian; assay type: in vivo; conditions: Lolium multiflorum, post-emergence, 240 h, 0 to 100 scale (0 no effect, 100 complete control), read-out: Plant response rating, Ryegrass, Italian; for pest or weed control at 31 g/ha: 31 g ai/ha; for pest or weed control at 125 g/ha: 125 g ai/ha
[5] = tested on: pigweed (Amaranthus retroflexus); assay: Test A preemergence, pigweed; assay type: in vivo; conditions: Amaranthus retroflexus, pre-emergence, 240 h, 0 to 100 scale (0 no effect, 100 complete control), read-out: Plant response rating, Pigweed; for pest or weed control at 31 g/ha: 31 g ai/ha; for pest or weed control at 125 g/ha: 125 g ai/ha
corn (Zea mays) = assay: Test A postemergence, corn; assay type: in vivo; conditions: Zea mays, post-emergence, 240 h, 0 to 100 scale (0 no effect, 100 complete control); for Corn plant response rating (crop injury, 0 = no effect, 100 = complete kill) at 31 g/ha: 31 g ai/ha; for Corn plant response rating (crop injury, 0 = no effect, 100 = complete kill) at 125 g/ha: 125 g ai/ha
[6] = tested on: foxtail, giant (giant foxtail, Setaria faberii); assay: Test A preemergence, foxtail, giant; assay type: in vivo; conditions: Setaria faberi, pre-emergence, 240 h, 0 to 100 scale (0 no effect, 100 complete control), read-out: Plant response rating, Foxtail, Giant; for pest or weed control at 31 g/ha: 31 g ai/ha; for pest or weed control at 125 g/ha: 125 g ai/ha
kochia (Kochia scoparia) [7] = assay: Test A postemergence, kochia; assay type: in vivo; conditions: Bassia scoparia, post-emergence, 240 h, 0 to 100 scale (0 no effect, 100 complete control), read-out: Plant response rating, Kochia; for pest or weed control at 31 g/ha: 31 g ai/ha; for pest or weed control at 125 g/ha: 125 g ai/ha
rice (Oryza sativa) = assay: Test B flooded paddy test, rice; conditions: Oryza sativa, read-out: Plant response rating, Rice (0 to 100 scale, 0 is no effect, 100 is complete control)
kochia (Kochia scoparia) [8] = assay: Test A preemergence, kochia; assay type: in vivo; conditions: Bassia scoparia, pre-emergence, 240 h, 0 to 100 scale (0 no effect, 100 complete control), read-out: Plant response rating, Kochia; for pest or weed control at 31 g/ha: 31 g ai/ha; for pest or weed control at 125 g/ha: 125 g ai/ha
[9] = tested on: ryegrass, Italian (Italian ryegrass, Lolium multiflorum); assay: Test A preemergence, ryegrass, Italian; assay type: in vivo; conditions: Lolium multiflorum, pre-emergence, 240 h, 0 to 100 scale (0 no effect, 100 complete control), read-out: Plant response rating, Ryegrass, Italian; for pest or weed control at 31 g/ha: 31 g ai/ha; for pest or weed control at 125 g/ha: 125 g ai/ha
[10] = tested on: blackgrass (Alopecurus myosuroides); assay: Test A postemergence, blackgrass; assay type: in vivo; conditions: Alopecurus myosuroides, post-emergence, 240 h, 0 to 100 scale (0 no effect, 100 complete control), read-out: Plant response rating, Blackgrass; for pest or weed control at 31 g/ha: 31 g ai/ha; for pest or weed control at 125 g/ha: 125 g ai/ha
[11] = tested on: ducksalad (Heteranthera limosa); assay: Test B flooded paddy test, ducksalad; conditions: Heteranthera limosa, read-out: Plant response rating, Ducksalad (0 to 100 scale, 0 is no effect, 100 is complete control)
[12] = tested on: pigweed (Amaranthus retroflexus); assay: Test A postemergence, pigweed; assay type: in vivo; conditions: Amaranthus retroflexus, post-emergence, 240 h, 0 to 100 scale (0 no effect, 100 complete control), read-out: Plant response rating, Pigweed; for pest or weed control at 31 g/ha: 31 g ai/ha; for pest or weed control at 125 g/ha: 125 g ai/ha
[13] = tested on: barnyardgrass (Echinochloa crus-galli); assay: Test A postemergence, barnyardgrass; assay type: in vivo; conditions: Echinochloa crus-galli, post-emergence, 240 h, 0 to 100 scale (0 no effect, 100 complete control), read-out: Plant response rating, Barnyardgrass; for pest or weed control at 31 g/ha: 31 g ai/ha; for pest or weed control at 125 g/ha: 125 g ai/ha
[14] = tested on: barnyardgrass (Echinochloa crus-galli); assay: Test B flooded paddy test, barnyardgrass; conditions: Echinochloa crus-galli, read-out: Plant response rating, Barnyardgrass (0 to 100 scale, 0 is no effect, 100 is complete control)
[15] = tested on: ragweed (common ragweed, Ambrosia elatior); assay: Test A preemergence, ragweed; assay type: in vivo; conditions: Ambrosia artemisiifolia, pre-emergence, 240 h, 0 to 100 scale (0 no effect, 100 complete control), read-out: Plant response rating, Ragweed; for pest or weed control at 31 g/ha: 31 g ai/ha; for pest or weed control at 125 g/ha: 125 g ai/ha
[16] = tested on: wheat (Triticum aestivum); assay: Test A postemergence, wheat; assay type: in vivo; conditions: Triticum aestivum, post-emergence, 240 h, 0 to 100 scale (0 no effect, 100 complete control), read-out: Plant response rating, Wheat; for plant injury at 31 g/ha: 31 g ai/ha; for plant injury at 125 g/ha: 125 g ai/ha

Row | Structure (SMILES) | pest or weed control at 31 g/ha [1] [%] | pest or weed control at 125 g/ha [1] [%] | pest or weed control at 31 g/ha [2] [%] | pest or weed control at 125 g/ha [2] [%] | pest or weed control at 31 g/ha [3] [%] | pest or weed control at 125 g/ha [3] [%] | pest or weed control at 31 g/ha [4] [%] | pest or weed control at 125 g/ha [4] [%] | pest or weed control at 31 g/ha [5] [%] | pest or weed control at 125 g/ha [5] [%] | Corn plant response rating (crop injury, 0 = no effect, 100 = complete kill) at 31 g/ha (corn (Zea mays)) [%] | Corn plant response rating (crop injury, 0 = no effect, 100 = complete kill) at 125 g/ha (corn (Zea mays)) [%] | pest or weed control at 31 g/ha [6] [%] | pest or weed control at 125 g/ha [6] [%] | pest or weed control at 31 g/ha (kochia (Kochia scoparia) [7]) [%] | pest or weed control at 125 g/ha (kochia (Kochia scoparia) [7]) [%] | plant injury at 250 g/ha (rice (Oryza sativa)) [%] | pest or weed control at 31 g/ha (kochia (Kochia scoparia) [8]) [%] | pest or weed control at 125 g/ha (kochia (Kochia scoparia) [8]) [%] | pest or weed control at 31 g/ha [9] [%] | other results
1 | O=C1CCC(CCCC(F)(F)F)c2c(Oc3ncc(Cl)cn3)cccc21 (stereo not drawn) [Compound 30, 5-[(5-Chloro-2-pyrimidinyl)oxy]-3,4-dihydro-4-(4,4,4-trifluorobutyl)-1(2H)-naphthalenone] | 30 | 80 | 10 | 10 | 0 | 40 | 30 | 30 | 10 | 60 | 30 | 30 | 10 | 80 | 10 | 30 | 0 | 0 | 0 | 0 | pest or weed control at 125 g/ha [9]: 10%; pest or weed control at 31 g/ha [10]: 20%; pest or weed control at 125 g/ha [10]: 60%; pest or weed control at 250 g/ha [11]: 85%; pest or weed control at 31 g/ha [12]: 70%; pest or weed control at 125 g/ha [12]: 90%; pest or weed control at 31 g/ha [13]: 20%; pest or weed control at 125 g/ha [13]: 30%; pest or weed control at 250 g/ha [14]: 20%; pest or weed control at 31 g/ha [15]: 0%; pest or weed control at 125 g/ha [15]: 0%; plant injury at 31 g/ha [16]: 0%; plant injury at 125 g/ha [16]: 20%
2 | FC(F)(F)CCCC1OCCc2cccc(Oc3ncc(Cl)cn3)c21 (stereo not drawn) [Compound 27, 5-Chloro-2-[[3,4-dihydro-1-(4,4,4-trifluorobutyl)-1H-2-benzopyran-8-yl]oxy]pyrimidine] | 40 | 80 | 0 | 10 | 10 | 80 | 10 | 40 | 30 | 50 | 20 | 30 | 50 | 100 | 10 | 10 | 0 | 0 | 0 | 0 | pest or weed control at 125 g/ha [9]: 20%; pest or weed control at 31 g/ha [10]: 20%; pest or weed control at 125 g/ha [10]: 40%; pest or weed control at 250 g/ha [11]: 95%; pest or weed control at 31 g/ha [12]: 50%; pest or weed control at 125 g/ha [12]: 70%; pest or weed control at 31 g/ha [13]: 20%; pest or weed control at 125 g/ha [13]: 30%; pest or weed control at 250 g/ha [14]: 0%; pest or weed control at 31 g/ha [15]: 0%; pest or weed control at 125 g/ha [15]: 0%; plant injury at 31 g/ha [16]: 0%; plant injury at 125 g/ha [16]: 10%
3 | O=C1OCc2cccc(Oc3ncc(Cl)cn3)c2C1CCC(F)(F)F (stereo not drawn) [Compound 29, 5-[(5-Chloro-2-pyrimidinyl)oxy]-1,4-dihydro-4-(3,3,3-trifluoropropyl)-3H-2-benzopyran-3-one] | 20 | 50 | 10 | 30 | 0 | 10 | 0 | 30 | 0 | 80 | 10 | 30 | 0 | 20 | 20 | 60 | 0 | 0 | 10 | 0 | pest or weed control at 125 g/ha [9]: 0%; pest or weed control at 31 g/ha [10]: 30%; pest or weed control at 125 g/ha [10]: 30%; pest or weed control at 250 g/ha [11]: 0%; pest or weed control at 31 g/ha [12]: 30%; pest or weed control at 125 g/ha [12]: 70%; pest or weed control at 31 g/ha [13]: 0%; pest or weed control at 125 g/ha [13]: 30%; pest or weed control at 250 g/ha [14]: 0%; pest or weed control at 31 g/ha [15]: 0%; pest or weed control at 125 g/ha [15]: 10%; plant injury at 31 g/ha [16]: 0%; plant injury at 125 g/ha [16]: 10%
